Results on 43 molecules are retold here after patent publication US20260097047A1, “Small molecule inhibitors of the ribosome biogenesis factor NVL2” (Board of Regents, The University of Texas System, priority 2023, published 2026).

One assay deals with p53 and p21. In words: p53 and p21 protein levels in HCT116 cells.
Conditions: not given
It is filed as cell-based, human. An excerpt: Inhibition of 60S ribosome biogenesis is known to induce the stability and upregulation of p53, which could serve as a potential pharmacodynamics marker for MM017 in HCT116 cells. […] We used PRISM (Broad Institute) to evaluate the selectivity of MM017 across 902 cancer cell lines and then correlated this selectivity to 1,215 clinical and pre-clinical compounds in the PRISM database. […] These observations indicate that oxaliplatin and carmofur, like MM017, target ribosome biogenesis.
With `Cc1cnc(CNC(=O)c2c(=O)c3ccc(N4CCCN(C)CC4)nc3n3c2sc2ccccc23)cn1` [CX-5461, reference compound], the “p53 levels in parental HCT116 cells” value is “dose-dependent increase in the levels of p53”.

In the next assay the test system is HCT116 cells. In words: Cell viability assay (CellTiter-Glo, 72 hours) in HCT116 human colorectal cancer cells. It is filed as cell-based. The note with it: Homo sapiens, HCT-116; Table 1; HCT116, 72 hours; read-out: Activity. The gist of the method: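 Ten-point IC50 came from an asymmetric five-parameter fit of luminescence corrected to vehicle wells. ATP content was measured by CellTiter-Glo 72 h after dosing at 37 °C. Cells were seeded at 2,000/well the day before, with 0.5% DMSO in all wells.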
Take `C#CCOCCN1C(=O)c2ccccc2Sc2cc(NC(=O)N3CCC3)ccc21` [N-(11-Oxo-10-(2-(prop-2-yn-1-yloxy)ethyl)-10,11-dihydrodibenzo[b,f][1,4]thiazepin-7-yl) azetidine-1-carboxamide]: the IC50 was under 500 nM.

Still in this assay, the particulars now being: Homo sapiens, HCT-116; Table 5; HCT116, 72 hours; read-out: Activity.
For the molecule `CC#CCN1C(=O)c2ccccc2Cc2cc(Nc3nccc(C#N)c3C)ccc21` [2-((5-(But-2-yn-1-yl)-6-oxo-6,11-dihydro-5H-dibenzo[b,e]azepin-2-yl)amino)-3-methylisonicotinonitrile], the IC50 was under 500 nM. In the case of `CC#CCN1C(=O)c2ccc(F)cc2Sc2cc(Nc3ncccc3F)ccc21` [10-(But-2-yn-1-yl)-3-fluoro-7-((3-fluoropyridin-2-yl)amino)dibenzo[b,f][1,4]thiazepin-11 (10H)-one], the IC50 is under 500 nM. As for `CCC/C=C/CN1C(=O)c2ccccc2Sc2cc(Nc3nccnc3OC)ccc21` [(E)-10-(Hex-2-en-1-yl)-7-((3-methoxypyrazin-2-yl)amino)dibenzo[b,f][1,4]thiazepin-11 (10H)-one], the IC50 is 500 to 1000 nM.

The assay is the same for the next values; noted with them: Homo sapiens, HCT-116; Table 6; HCT116, 72 hours; read-out: Activity.
Turning to `CC#CCN1C(=O)c2ccccc2Sc2cc(NC3CC4(COC4)C3)ccc21` [7-((2-Oxaspiro[3.3]heptan-6-yl)amino)-10-(but-2-yn-1-yl)dibenzo[b,f][1,4]thiazepin-11 (10H)-one], the IC50 was under 500 nM.

The same assay, now with this note: Table 3; HCT116, 72 hours; read-out: Activity.
On to `CC#CCN1C(=O)c2ccccc2Sc2cc(NC(=O)NC3COC3)ccc21` [Table 3: —CH2CCMe; oxetan-3-yl; CH/CH], for which the IC50 is under 500 nM. Same read-out and setting: with `CC#CCN1C(=O)c2ccccc2Sc2cc(NC(=O)N[C@H]3C[C@H](O)C3)ccc21` [Table 3: —CH2CCMe; trans-3-OH-cBu; CH/CH] the figure was under 500 nM.

Still in this assay, the particulars now being: Table 4; HCT116, 72 hours; read-out: Activity.
Turning to `CC#CCN1C(=O)c2ccccc2Sc2cc(NC(=S)NC3CC(COC)C3)ccc21` (stereo not shown) [Table 4: —CH2CCMe; 3-MeOCH2-cBu; CH], the IC50 was under 500 nM.

The same assay, now with this note: Table 5; HCT116, 72 hours; read-out: Activity.
As for `CC#CCN1C(=O)c2ccccc2Sc2cc(Nc3nc(C)ccc3F)cnc21`, the IC50 was under 500 nM.

Regarding `CC=CCN1C(=O)c2ccccc2Sc2cc(Nc3ncc(C)cc3C)ccc21`, the IC50 is under 500 nM. Turning to `CC#CCN1C(=O)c2ccccc2Sc2cc(Nc3nccc(C#N)c3F)cnc21`, the IC50 is under 500 nM. Turning to `O=C1c2ccccc2Sc2cc(Nc3cccnn3)ccc2N1CC#CCl`, the IC50 was under 500 nM.

Staying with this assay, now noted: Table 6; HCT116, 72 hours; read-out: Activity.
As to `CC#CCN1C(=O)c2ccccc2Cc2cc(NC3CC(O)C3)ccc21` (stereo not shown) [Table 6: —CH2CCMe; 3-HOcBu; CH/CH; CH2], the IC50 was under 500 nM. Take `COC1CC(Nc2cnc3c(c2)Sc2ccccc2C(=O)N3CC#CCl)C1` (stereo not shown) [Table 6: —CH2CCCl; 3-MeOcBu; CH/N; S]: the IC50 is under 500 nM.

Still in this assay, the particulars now being: Table 7; cell viability assay, CellTiter-Glo, 72 hours; scaffold drawing 42 with R^2, R^3, X/Y, Z; read-out: Activity.
Regarding `C#CCOCCN1C(=O)c2ccccc2Sc2cc(NC(=O)c3ccoc3)ccc21` [—(CH2)2OCH2CCH; furan-3-yl; CH/CH; S], the IC50 was under 500 nM.

`COCCN1C(=O)c2ccccc2Sc2cc(NC(=O)c3ccc(F)c(Cl)c3)ccc21` [—(CH2)2OMe; 3-Cl,4-FPh; CH/CH; S]: the IC50 was 1000 to 5000 nM.

As to `C#CCOCCN1C(=O)c2ccccc2Sc2cc(NC(=O)c3ccc(OC)c(F)c3)ccc21` [—(CH2)2OCH2CCH; 3-F,4-MeOPh; CH/CH; S], the IC50 lay in the range of 1000 to 5000 nM.

Still in this assay, the particulars now being: Table 8; analogs of scaffold drawing 43 defined by R^2, R^3, X/Y, W; read-out: Activity (IC50 class, cell viability assay).
Take `CO[C@H]1C[C@@H](C(=O)Nc2cnc3c(c2)Sc2ccccc2C(=O)N3CC#CC2CC2)C1` [—CH2CC^cPr; cis-3-MeOcBu; CH/CH; N]: the IC50 was under 500 nM.

Regarding `COCC1CC(C(=O)Nc2ccc3c(c2)Sc2ccccc2C(=O)N3CC#CC(F)(F)F)C1` (stereo not shown) [—CH2CCCF3; 3-MeOCH2-cBu; CH/CH; CH], the IC50 is under 500 nM.

Turning to `C#CCN1C(=O)c2ccc(Cl)cc2Sc2cc(NC(=O)C3CC4(CC(=NOC)C4)C3)ccc21` (stereo not shown), the IC50 was under 500 nM.

`CC#CCN1C(=O)c2ccccc2Sc2cc(NC(=O)C3CCCO3)ccc21` (stereo not shown): the IC50 is under 500 nM. On the same count and under the same terms, the value for `CC#CCN1C(=O)c2ccccc2Sc2cc(NC(=O)C3CCCN3C)ccc21` (stereo not shown) was under 500 nM; that for `CC#CCN1C(=O)c2cc(F)ccc2Sc2cc(NC(=O)C3CC4(CC(O)C4)C3)cnc21` (stereo not shown) was under 500 nM. Regarding `O=C(Nc1cnc2c(c1)Sc1cc(Cl)ccc1C(=O)N2CC#CCl)C1CC1CO` (stereo not drawn) [—CH2CCCl; trans-2-HOCH2-cPr; CCl/CH; N], the IC50 is under 500 nM. Same read-out and setting: the value for `CC#CCN1C(=O)c2ccc(Cl)cc2Sc2cc(NC(=O)C=CCO)cnc21` [—CH2CCMe; CH—═CHCH2OH; CCI/CH; N] was under 500 nM.

Take `COc1ccc(C(=O)Nc2ccc3c(c2)Sc2ccccc2C(=O)N3CC#CC(F)(F)F)cc1` [—CH2CCCF3; 4-MeOPh; CH/CH; CH]: the IC50 is under 500 nM. On to `CC#CCN1C(=O)c2ccc(Cl)cc2Sc2cc(NC(=O)CC3COC3)ccc21` [—CH2CCMe; (oxetan-3-yl)CH2; CCl/CH; CH], for which the IC50 is under 500 nM. Still for that read-out and setting: with `CO[C@H]1C[C@@H](C(=O)Nc2ccc3c(c2)Sc2ccc(F)cc2C(=O)N3CC#CCF)C1` [—CH2CCCH2F; cis-3-MeOcBu; CH/CF; CH] the figure was under 500 nM; with `CC#CCN1C(=O)c2ccc(Cl)cc2Sc2cc(NC(=O)[C@@H]3C[C@H]3CO)ccc21` (relative stereo) [—CH2CCMe; trans-2-HOCH2-cPr; CCl/CH; CH], under 500 nM. Take `O=C(Nc1cnc2c(c1)Sc1ccccc1C(=O)N2CC#CC1CC1)C1CC2(COC2)C1`: the IC50 was under 500 nM.

As for `COC12CC(C(=O)Nc3cnc4c(c3)Sc3ccccc3C(=O)N4CC#CC(F)(F)F)(C1)C2`, the IC50 is under 500 nM. The same measure, in the same setting: the value for `CC#CCN1C(=O)c2ccccc2Sc2cc(NC(=O)C3CCCO3)cnc21` (stereo not shown) [—CH2CCMe; tetrahydrofuran-2-yl; CH/CH; N] was under 500 nM; that for `CC#CCN1C(=O)c2ccccc2Sc2cc(NC(=O)C34CC(OC)(C3)C4)ccc21` was under 500 nM. As to `CC#CCN1C(=O)c2ccc(Cl)cc2Sc2cc(NC(=O)C3CC4(CC(=O)C4)C3)ccc21`, the IC50 was under 500 nM.

With `CC#CCN1C(=O)c2cc(F)ccc2Sc2cc(NC(=O)C3CCCO3)cnc21` (stereo not shown) [—CH2CCMe; tetrahydrofuran-2-yl; CH/CF; N], the IC50 was under 500 nM. Still for that read-out and setting: the value for `COC12CC(C(=O)Nc3cnc4c(c3)Sc3ccccc3C(=O)N4CC#CCF)(C1)C2` was under 500 nM; that for `CC#CCN1C(=O)c2ccc(Cl)cc2Sc2cc(NC(=O)C3CCCO3)ccc21` (stereo not shown) was under 500 nM; that for `CO[C@H]1C[C@H](C(=O)Nc2ccc3c(c2)Sc2ccc(F)cc2C(=O)N3CC#CCF)C1` [—CH2CCCH2F; trans-3-MeOcBu; CH/CF; CH] was under 500 nM.

The assay is the same for the next values; noted with them: Table 9; HCT116, 72 hours; read-out: Activity.
Consider `COC1CC(C(=O)Nc2ccc3c(c2)C(C)c2ccccc2C(=O)N3CC#CC2CC2)C1` (stereo not shown), for which the IC50 is under 500 nM.

Consider `CC1c2ccccc2C(=O)N(CC#CC2CC2)c2ccc(NC(=O)C3CC4(COC4)C3)cc21` (stereo not shown), for which the IC50 is under 500 nM. Take `CC#CCN1C(=O)c2ccccc2C(C)c2cc(NC(=O)NCCOC)ccc21` (stereo not shown) [Table 9: —CH2CCMe; NH(CH2)2OMe; CHMe]: the IC50 was under 500 nM. Take `CC1c2ccccc2C(=O)N(CC#CC2CC2)c2ccc(NC(=O)C=CCO)cc21` (stereo not shown) [Table 9: —CH2CC^cPr; CH═CHCH2OH; CHMe]: the IC50 is under 500 nM.
